{"source": "paper PMC10207986", "about": "“Computational high-throughput screening and in vitro approaches identify CB-006-3; A novel PI3K-BRAF^V600E dual targeted inhibitor against melanoma” (Oncology Research, 2022)", "format_in_all_cases": "biochemical", "key": {"PI3KCG (PI3K gamma)": {"biological_target": "T1, PI3KCG (PI3K gamma) (Homo sapiens, UniProt P48736)", "T1 construct": "gene PIK3CG; enzyme used with Merck Millipore PI3K HTRF kit", "assay": "HTRF PI3K kinase assay", "conditions": "PIP2 substrate, ATP; 10 min pre-incubation, 30 min, room temperature"}, "PI3KCD (PI3K delta)": {"biological_target": "T2, PI3KCD (PI3K delta) (Homo sapiens, UniProt O00329)", "T2 construct": "gene PIK3CD; enzyme used with Merck Millipore PI3K HTRF kit; with Phosphatidylinositol 3-kinase regulatory subunit alpha", "T2 sequence (O00329 whole entry)": "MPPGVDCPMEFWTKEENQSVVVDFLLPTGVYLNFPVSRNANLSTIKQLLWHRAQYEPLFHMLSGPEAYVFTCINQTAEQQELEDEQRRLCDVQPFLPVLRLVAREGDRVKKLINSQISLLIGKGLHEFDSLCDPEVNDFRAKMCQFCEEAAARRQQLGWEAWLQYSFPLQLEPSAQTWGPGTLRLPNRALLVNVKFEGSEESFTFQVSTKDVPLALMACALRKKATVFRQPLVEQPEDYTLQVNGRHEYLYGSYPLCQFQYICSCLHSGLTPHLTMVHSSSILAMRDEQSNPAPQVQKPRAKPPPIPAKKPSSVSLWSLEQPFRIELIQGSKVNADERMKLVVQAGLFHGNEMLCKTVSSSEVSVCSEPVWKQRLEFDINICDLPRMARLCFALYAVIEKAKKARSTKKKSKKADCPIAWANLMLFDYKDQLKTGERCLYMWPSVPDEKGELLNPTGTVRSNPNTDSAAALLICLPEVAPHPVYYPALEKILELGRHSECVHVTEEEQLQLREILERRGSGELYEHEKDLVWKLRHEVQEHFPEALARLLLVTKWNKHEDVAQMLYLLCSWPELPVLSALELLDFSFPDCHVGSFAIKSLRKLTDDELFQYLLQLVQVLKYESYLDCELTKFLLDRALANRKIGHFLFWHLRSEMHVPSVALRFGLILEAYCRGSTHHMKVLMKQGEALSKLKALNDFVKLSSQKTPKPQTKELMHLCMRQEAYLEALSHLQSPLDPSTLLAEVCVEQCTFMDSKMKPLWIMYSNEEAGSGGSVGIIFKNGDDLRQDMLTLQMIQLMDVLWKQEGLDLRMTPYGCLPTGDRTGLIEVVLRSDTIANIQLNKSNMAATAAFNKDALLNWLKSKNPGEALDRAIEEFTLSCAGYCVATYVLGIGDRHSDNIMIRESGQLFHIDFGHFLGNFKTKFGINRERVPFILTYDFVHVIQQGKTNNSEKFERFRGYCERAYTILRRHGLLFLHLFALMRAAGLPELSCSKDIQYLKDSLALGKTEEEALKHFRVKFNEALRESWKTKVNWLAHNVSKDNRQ", "T2 sequence (P27986 2-724 partner)": "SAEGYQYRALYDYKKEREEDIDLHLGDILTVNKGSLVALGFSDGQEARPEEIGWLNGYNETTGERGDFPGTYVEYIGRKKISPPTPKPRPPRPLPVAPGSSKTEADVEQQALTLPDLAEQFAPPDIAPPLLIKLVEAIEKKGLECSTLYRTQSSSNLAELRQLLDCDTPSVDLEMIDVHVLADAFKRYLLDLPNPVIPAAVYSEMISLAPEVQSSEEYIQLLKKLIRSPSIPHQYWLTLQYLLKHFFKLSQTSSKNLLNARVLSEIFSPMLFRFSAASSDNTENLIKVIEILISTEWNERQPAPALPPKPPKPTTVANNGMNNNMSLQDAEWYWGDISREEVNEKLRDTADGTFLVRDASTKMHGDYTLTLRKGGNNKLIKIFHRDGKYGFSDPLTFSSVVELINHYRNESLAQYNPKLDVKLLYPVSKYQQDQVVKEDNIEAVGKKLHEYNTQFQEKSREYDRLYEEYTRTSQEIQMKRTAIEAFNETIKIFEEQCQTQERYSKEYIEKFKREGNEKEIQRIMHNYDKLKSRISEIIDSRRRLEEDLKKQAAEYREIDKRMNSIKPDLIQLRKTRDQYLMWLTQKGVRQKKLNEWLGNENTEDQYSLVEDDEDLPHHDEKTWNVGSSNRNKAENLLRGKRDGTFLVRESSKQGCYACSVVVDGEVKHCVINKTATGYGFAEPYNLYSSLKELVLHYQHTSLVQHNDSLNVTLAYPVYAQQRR", "assay": "HTRF PI3K kinase assay", "conditions": "PIP2 substrate, ATP; 10 min pre-incubation, 30 min, room temperature"}, "BRAF^V600E (B-Raf^V600E)": {"biological_target": "T3, BRAF^V600E (B-Raf^V600E) (Homo sapiens, UniProt P15056, V600E)", "T3 construct": "enzyme of BPS Bioscience B-Raf V600E assay kit", "T3 sequence (P15056 2-766 V600E)": "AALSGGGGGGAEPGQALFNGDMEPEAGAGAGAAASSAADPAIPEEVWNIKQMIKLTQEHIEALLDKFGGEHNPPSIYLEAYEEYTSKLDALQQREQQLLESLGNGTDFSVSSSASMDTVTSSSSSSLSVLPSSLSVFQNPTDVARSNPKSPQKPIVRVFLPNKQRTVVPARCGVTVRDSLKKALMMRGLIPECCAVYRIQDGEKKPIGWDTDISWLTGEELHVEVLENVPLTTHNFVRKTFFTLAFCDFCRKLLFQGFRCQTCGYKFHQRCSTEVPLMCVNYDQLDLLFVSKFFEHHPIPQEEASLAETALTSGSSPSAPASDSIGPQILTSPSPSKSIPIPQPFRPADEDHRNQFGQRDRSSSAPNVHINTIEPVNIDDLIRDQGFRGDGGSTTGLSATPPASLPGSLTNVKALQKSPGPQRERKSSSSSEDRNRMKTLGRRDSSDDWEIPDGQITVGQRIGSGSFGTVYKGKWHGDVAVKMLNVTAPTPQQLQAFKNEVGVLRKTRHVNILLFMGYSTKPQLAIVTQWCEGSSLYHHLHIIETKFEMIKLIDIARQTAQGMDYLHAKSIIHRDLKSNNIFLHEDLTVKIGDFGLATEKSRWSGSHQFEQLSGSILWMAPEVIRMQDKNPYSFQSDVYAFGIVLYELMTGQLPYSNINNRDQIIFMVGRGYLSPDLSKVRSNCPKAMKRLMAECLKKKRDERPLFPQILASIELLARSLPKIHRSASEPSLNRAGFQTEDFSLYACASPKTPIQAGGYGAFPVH", "assay": "luminescence kinase assay (Kinase-Glo Max)", "conditions": "500 µM ATP, Raf substrate, 45 min, 30°C"}}}
{"molecule": "Cc1cc(C)c(CC(=O)N2C[C@@H]3CC(=O)NCCN(C)C(=O)c4cccn(c4=O)Cc4cn(nn4)[C@@H]3C2)c(C)c1", "note": "(relative stereo) [CB-006-3, rel-(17aS,20aS)-19-(mesitylacetyl)-12-methyl-12,13,14,15,17,17a,18,19,20,20a-decahydro-6,10-methano-1,4-methenopyrrolo[3,4-r] [1,2,3,6,12,15]hexaazacyclononadecine-11,16,21-trione]", "values": [{"measurement": "IC50", "setting": "PI3KCG (PI3K gamma)", "result": 75.8, "unit": "nM"}, {"measurement": "IC50", "setting": "PI3KCD (PI3K delta)", "result": 160, "unit": "nM"}, {"measurement": "IC50", "setting": "BRAF^V600E (B-Raf^V600E)", "result": 70.8, "unit": "nM"}]}
